Reference: PubChem BioAssay AID248 (DTP/NCI, 2004)
Values joined by “and” are separate entries in the source; they are usually repeats but may differ in a detail not shown here. Equal entries are not always repeated. Inconclusive results and toxic doses are left out. Rule as the data show it: active = T/C of 150% or more; inactive = T/C below 125%.

Tested on: L1210 leukemia ip in BDF1 mice, survival T/C
Assay: NCI In Vivo Anticancer Drug Screen. Data for tumor model L1210 Leukemia (intraperitoneal) in B6D2F1 (BDF1) mice
Conditions: endpoint: mean survival time, higher = longer survival
In short: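 Mice bearing the transplanted tumor received compound or vehicle. Survival of the treated group was divided by that of the vehicle-treated control group to give the ratio.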

[1] = dose: 50.0 mg/kg/injection, schedule: Q04DX003 (ip), vehicle: saline
[2] = dose: 100.0 mg/kg/injection, schedule: Q04DX003 (ip), vehicle: saline
[3] = dose: 200.0 mg/kg/injection, schedule: Q04DX003 (ip), vehicle: saline
[4] = dose: 100.0 mg/kg/injection, schedule: Q01DX001 (ip), vehicle: saline
[5] = dose: 100.0 mg/kg/injection, schedule: Q01DX009 (ip), vehicle: saline with Tween-80
[6] = dose: 100.0 mg/kg/injection, schedule: Q04DX002 (ip), vehicle: saline with Tween-80
[7] = dose: 200.0 mg/kg/injection, schedule: Q04DX002 (ip), vehicle: saline with Tween-80
[8] = dose: 400.0 mg/kg/injection, schedule: Q04DX002 (ip), vehicle: saline with Tween-80
[9] = dose: 100.0 mg/kg/injection, schedule: Q04DX003 (ip), vehicle: Klucel (hydroxypropylcellulose) (HPC)
[10] = dose: 200.0 mg/kg/injection, schedule: Q04DX003 (ip), vehicle: Klucel (hydroxypropylcellulose) (HPC)
[11] = dose: 400.0 mg/kg/injection, schedule: Q04DX003 (ip), vehicle: Klucel (hydroxypropylcellulose) (HPC)
[12] = dose: 200.0 mg/kg/injection, schedule: Q01DX001 (ip), vehicle: saline

Measured: T/C

CC(C)C1C(=O)N2CCCC2C2(O)OC(NC(=O)C3C=C4c5cccc6[nH]cc(c56)CC4N(C)C3)(C(C)C)C(=O)N12 (configuration not stated)
inactive: dose: 25.0 mg/kg/injection, schedule: Q01DX009 (ip), vehicle: saline 94 % of control | dose: 50.0 mg/kg/injection, schedule: Q01DX009 (ip), vehicle: saline 91 % of control | [1] 106 % of control | dose: 100.0 mg/kg/injection, schedule: Q01DX009 (ip), vehicle: saline 94 % of control | [2] 101 % of control | [3] 108 % of control | dose: 400.0 mg/kg/injection, schedule: Q04DX003 (ip), vehicle: saline 95 % of control

Cc1cc(/C=N/NC(=O)c2ccccc2NC(=O)c2ccccc2Cl)ccc1O
inactive: dose: 100.0 mg/kg/injection, schedule: Q01DX009 (ip), vehicle: Klucel (hydroxypropylcellulose) (HPC) 88 % of control | dose: 200.0 mg/kg/injection, schedule: Q01DX009 (ip), vehicle: Klucel (hydroxypropylcellulose) (HPC) 92 % of control | dose: 400.0 mg/kg/injection, schedule: Q01DX009 (ip), vehicle: Klucel (hydroxypropylcellulose) (HPC) 86 % of control

N#C[SH2+].N#C[SH2+].N#C[SH2+].N#C[SH2+].[Cu+2].c1ccc(C[P+](c2ccccc2)(c2ccccc2)c2ccccc2)cc1
inactive: dose: 6.0 mg/kg/injection, schedule: Q01DX009 (ip), vehicle: saline 100 % of control

O=C1c2ccccc2C(=O)N1Cc1cccc(CBr)c1
inactive: dose: 50.0 mg/kg/injection, schedule: Q01DX001 (ip), vehicle: Klucel (hydroxypropylcellulose) (HPC) 105 % of control | dose: 100.0 mg/kg/injection, schedule: Q01DX001 (ip), vehicle: Klucel (hydroxypropylcellulose) (HPC) 92 % of control | dose: 200.0 mg/kg/injection, schedule: Q01DX001 (ip), vehicle: Klucel (hydroxypropylcellulose) (HPC) 91 % of control

NC(=O)N/N=C(/CBr)c1ccc(-c2ccccc2)cc1
inactive: dose: 25.0 mg/kg/injection, schedule: Q04DX003 (ip), vehicle: saline 101 % of control | [1] 95 % of control | [4] 96 % of control | [2] 91 % of control

Oc1c(Br)cc(Br)cc1C=NCC1CCC(CN=Cc2cc(Br)cc(Br)c2O)CC1 (configuration not stated)
inactive: [5] 92 % of control | [6] 110 % of control and 90 % of control | [7] 96 % of control and 90 % of control | dose: 400.0 mg/kg/injection, schedule: Q01DX009 (ip), vehicle: saline with Tween-80 92 % of control and 94 % of control | [8] 106 % of control and 90 % of control

O=C1CSc2ccccc2N1CCN1C(=O)CSc2ccccc21
inactive: dose: 50.0 mg/kg/injection, schedule: Q04DX002 (ip), vehicle: saline with Tween-80 93 % of control | [6] 90 % of control | [7] 101 % of control | [8] 86 % of control

CC(=O)OC1COC(SC(C)=O)C(OC(C)=O)C1OC(C)=O (configuration not stated)
inactive: dose: 100.0 mg/kg/injection, schedule: Q01DX001 (ip), vehicle: other 95 % of control | dose: 200.0 mg/kg/injection, schedule: Q01DX001 (ip), vehicle: other 104 % of control | dose: 400.0 mg/kg/injection, schedule: Q01DX001 (ip), vehicle: other 95 % of control

CCCCCCCCCCCCCCCCCCC1=NCCN1
inactive: dose: 2.34 mg/kg/injection, schedule: Q01DX009 (ip), vehicle: saline 101 % of control | dose: 4.68 mg/kg/injection, schedule: Q01DX009 (ip), vehicle: saline 96 % of control | dose: 9.37 mg/kg/injection, schedule: Q01DX009 (ip), vehicle: saline 86 % of control | dose: 18.75 mg/kg/injection, schedule: Q04DX003 (ip), vehicle: saline 90 % of control | dose: 75.0 mg/kg/injection, schedule: Q01DX001 (ip), vehicle: acetone 97 % of control

CC(Cl)(Cl)[N+](=O)[O-]
inactive: [5] 104 % of control | dose: 200.0 mg/kg/injection, schedule: Q01DX009 (ip), vehicle: saline with Tween-80 104 % of control

CON(C)S(=O)(=O)c1ccccc1
inactive: [9] 103 % of control | [10] 97 % of control | [11] 95 % of control

Cc1cc(C)c2nc(-c3ccc(F)cc3)cc(C(=O)O)c2c1
inactive: [1] 97 % of control | [4] 101 % of control | [2] 97 % of control | [12] 93 % of control | [3] 96 % of control

Cc1cccc2c1sc1c(C)cc(C(=O)CCC(=O)O)cc12
inactive: [4] 94 % of control | [12] 89 % of control | dose: 400.0 mg/kg/injection, schedule: Q01DX001 (ip), vehicle: saline 97 % of control

O=P(c1ccccc1)(N1CCOCC1)N1CCOCC1
inactive: dose: 75.0 mg/kg/injection, schedule: Q04DX003 (ip), vehicle: saline 94 % of control | dose: 150.0 mg/kg/injection, schedule: Q04DX003 (ip), vehicle: saline 104 % of control | dose: 300.0 mg/kg/injection, schedule: Q04DX003 (ip), vehicle: saline 110 % of control

O=C(Nc1cccc(NC(=O)c2ccccc2)c1)c1ccccc1
inactive: [9] 92 % of control | [10] 95 % of control | [11] 90 % of control

Cc1ccc(NNP(Cl)(c2ccccc2)(c2ccccc2)c2ccccc2)cc1
inactive: dose: 50.0 mg/kg/injection, schedule: Q01DX001 (ip), vehicle: saline 92 % of control | [4] 97 % of control

O=[N+]([O-])c1cc([N+](=O)[O-])c(Cl)s1
inactive: dose: 12.5 mg/kg/injection, schedule: Q01DX009 (ip), vehicle: saline with Tween-80 97 % of control | dose: 25.0 mg/kg/injection, schedule: Q01DX009 (ip), vehicle: saline with Tween-80 91 % of control

Cc1ccc(CCOC(=O)c2cc([N+](=O)[O-])cc([N+](=O)[O-])c2)cc1
inactive: dose: 75.0 mg/kg/injection, schedule: Q01DX001 (ip), vehicle: carboxymethylcellulose (CMC) 94 % of control | dose: 150.0 mg/kg/injection, schedule: Q01DX001 (ip), vehicle: carboxymethylcellulose (CMC) 94 % of control | dose: 300.0 mg/kg/injection, schedule: Q01DX001 (ip), vehicle: carboxymethylcellulose (CMC) 90 % of control

O=C(O)/C(=C\c1cccnc1)NC(=O)c1ccccc1
inactive: dose: 100.0 mg/kg/injection, schedule: Q04DX002 (ip), vehicle: Klucel (hydroxypropylcellulose) (HPC) 90 % of control | dose: 200.0 mg/kg/injection, schedule: Q04DX002 (ip), vehicle: Klucel (hydroxypropylcellulose) (HPC) 101 % of control | dose: 400.0 mg/kg/injection, schedule: Q04DX002 (ip), vehicle: Klucel (hydroxypropylcellulose) (HPC) 96 % of control

Cc1ccc(I)cc1NCN1C(=O)c2ccccc2C1=O
inactive: [6] 100 % of control | [7] 107 % of control | [8] 104 % of control
